Experimental findings from the supplement of paper PMC8967900 are described below.
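Note: ALL cell lines in 384-well plates, five doses spanning 10,000-fold, each plate scaled between vehicle and 100 µmol/L benzalkonium chloride controls, sDSS an adapted area-under-curve metric.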

One test deals with NALL-1. In words: selective drug sensitivity score (sDSS, relative to normal bone marrow) (sDSS (score)); higher = more potent and effective on the cell line relative to normal bone marrow cells. The following applies: 72 h.
For the compound `Cc1c(-c2ccc(N3CCc4cccc(C(=O)Nc5nc6ccccc6s5)c4C3)nc2C(=O)O)cnn1CC12CC3CC(CC(C3)C1)C2` (top concentration 1000 nM), the “selective drug sensitivity score” value was 0.14.
For `O=C(NOC[C@H](O)CO)c1ccc(F)c(F)c1Nc1ccc(I)cc1F` (top concentration 1000 nM), the “selective drug sensitivity score” value was -4.16.
For `CO[C@@H](C)Cn1c(=O)n(C)c2cnc3ccc(-c4cncc(C(C)(C)O)c4)cc3c21` (top concentration 2500 nM), the “selective drug sensitivity score” value stood at 0.48.
As for `Cc1cccc(CC(=O)N2CCc3c2ccc(-c2cn(C)c4ncnc(N)c24)c3F)n1` (top concentration 2500 nM), the “selective drug sensitivity score” value is -0.68.
Still for that read-out and setting: as for `CNC(=O)c1ccccc1Nc1nc(Nc2ccc3c(c2OC)CCC[C@H](N2CCN(CCO)CC2)C3)ncc1Cl` (top concentration 5000 nM), the figure is -3.34.
As to `COc1cc2ncnc(Oc3cccc(NC(=O)Nc4cc(C(C)(C)C(F)(F)F)on4)c3)c2cc1OC` (top concentration 10000 nM), the “selective drug sensitivity score” value is 0.3.
On the same count and under the same terms, as for `C[C@@H](Oc1cc(-n2cnc3ccc(CN4CCN(C)CC4)cc32)sc1C(N)=O)c1ccccc1C(F)(F)F` (top concentration 10000 nM), the figure is 5.82; as for `Nc1nccc(-c2c(-c3ccc(F)cc3)ncn2C2CCCCC2)n1` (top concentration 10000 nM), 0.1; as for `O=C(O)c1ccc(-c2c[nH]c3ncc(-c4ccccc4)cc23)cc1C1CCCC1` (top concentration 10000 nM), 7.66.
Turning to `C[C@@H]1CN(CC(=O)Nc2ccc3c(c2)Cc2cccc(-c4cc(=O)cc(N5CCOCC5)o4)c2S3)C[C@H](C)O1` (top concentration 25000 nM), the “selective drug sensitivity score” value was -2.18.
As to `COc1ccc2[nH]cc(/C=C3\C(=O)Nc4ccc(NC(=O)CCN5CCCCC5)cc43)c2c1` (top concentration 50000 nM), the “selective drug sensitivity score” value was -2.52.
For `Cc1nn(C)c(COc2ccc(N3CCN(S(=O)(=O)N(C)C)CC3)cc2)c1-c1cccc2c(CCCOc3cccc4ccccc34)c(C(=O)O)n(CCN3CCOCC3)c12` (top concentration 50000 nM), the “selective drug sensitivity score” value was determined as 5.46.
Regarding `C[C@H](Nc1ncnc2[nH]cnc12)c1cc2ccc(F)cc2nc1-c1ccccn1` [AMG319] (top concentration 1000 nM), the “selective drug sensitivity score” value is -1.42.
For the compound `C=CCn1c(=O)c2cnc(Nc3ccc(N4CCN(C)CC4)cc3)nc2n1-c1cccc(C(C)(C)O)n1` [AZD1775] (top concentration 10000 nM), the “selective drug sensitivity score” value turned out to be 4.84.
For the compound `NC(=O)Nc1cc(-c2cccc(F)c2)sc1C(=O)N[C@H]1CCCNC1` [AZD7762] (top concentration 1000 nM), the “selective drug sensitivity score” value is -2.1.
`Cc1cc([C@@H](C)Nc2ccccc2C(=O)O)c2nc(N3CCOCC3)cc(=O)n2c1` [AZD-6482] (top concentration 2500 nM): the “selective drug sensitivity score” value was found to be 7.42.
Regarding `CN(C)Cc1c(C(=O)NCCOc2ccc(C(=O)NO)cc2)oc2ccccc12` [Abexinostat] (top concentration 10000 nM), the “selective drug sensitivity score” value was 1.06.
In the case of `S=C(NCc1ccc2c(c1)OCO2)N1CCN(c2ncnc3c2oc2ccccc23)CC1` [Amuvatinib] (top concentration 10000 nM), the “selective drug sensitivity score” value was 2.16.
For `CC(=O)OC[C@H]1O[C@@H]([S-])[C@H](OC(C)=O)[C@@H](OC(C)=O)[C@@H]1OC(C)=O.CCP(CC)CC.[Au+]` [Auranofin] (top concentration 2500 nM), the “selective drug sensitivity score” value worked out at 3.14.

The next test deals with P30-OHKUBO. The test is described as above. Conditions: 72 h.
As for `Cc1c(-c2ccc(N3CCc4cccc(C(=O)Nc5nc6ccccc6s5)c4C3)nc2C(=O)O)cnn1CC12CC3CC(CC(C3)C1)C2` (top concentration 1000 nM), the “selective drug sensitivity score” value is -2.26.
Take `O=C(NOC[C@H](O)CO)c1ccc(F)c(F)c1Nc1ccc(I)cc1F` (top concentration 1000 nM): the “selective drug sensitivity score” value is -4.16.
As to `CO[C@@H](C)Cn1c(=O)n(C)c2cnc3ccc(-c4cncc(C(C)(C)O)c4)cc3c21` (top concentration 2500 nM), the “selective drug sensitivity score” value is 8.18.
Regarding `Cc1cccc(CC(=O)N2CCc3c2ccc(-c2cn(C)c4ncnc(N)c24)c3F)n1` (top concentration 2500 nM), the “selective drug sensitivity score” value came out at 3.52.
Take `CNC(=O)c1ccccc1Nc1nc(Nc2ccc3c(c2OC)CCC[C@H](N2CCN(CCO)CC2)C3)ncc1Cl` (top concentration 5000 nM): the “selective drug sensitivity score” value came to 6.36.
For `COc1cc2ncnc(Oc3cccc(NC(=O)Nc4cc(C(C)(C)C(F)(F)F)on4)c3)c2cc1OC` (top concentration 10000 nM), the “selective drug sensitivity score” value stood at 3.2.
As to `C[C@@H](Oc1cc(-n2cnc3ccc(CN4CCN(C)CC4)cc32)sc1C(N)=O)c1ccccc1C(F)(F)F` (top concentration 10000 nM), the “selective drug sensitivity score” value amounted to 21.7.
As for `Nc1nccc(-c2c(-c3ccc(F)cc3)ncn2C2CCCCC2)n1` (top concentration 10000 nM), the “selective drug sensitivity score” value stood at 4.3.
Consider `O=C(O)c1ccc(-c2c[nH]c3ncc(-c4ccccc4)cc23)cc1C1CCCC1` (top concentration 10000 nM), for which the “selective drug sensitivity score” value stood at 3.36.
The same measure, in the same setting: as for `C[C@@H]1CN(CC(=O)Nc2ccc3c(c2)Cc2cccc(-c4cc(=O)cc(N5CCOCC5)o4)c2S3)C[C@H](C)O1` (top concentration 25000 nM), the figure is 3.42.
Take `COc1ccc2[nH]cc(/C=C3\C(=O)Nc4ccc(NC(=O)CCN5CCCCC5)cc43)c2c1` (top concentration 50000 nM): the “selective drug sensitivity score” value worked out at 0.38.
Still for that read-out and setting: as for `Cc1nn(C)c(COc2ccc(N3CCN(S(=O)(=O)N(C)C)CC3)cc2)c1-c1cccc2c(CCCOc3cccc4ccccc34)c(C(=O)O)n(CCN3CCOCC3)c12` (top concentration 50000 nM), the figure is 4.46; as for `C[C@H](Nc1ncnc2[nH]cnc12)c1cc2ccc(F)cc2nc1-c1ccccn1` [AMG319] (top concentration 1000 nM), 4.08.
Regarding `C=CCn1c(=O)c2cnc(Nc3ccc(N4CCN(C)CC4)cc3)nc2n1-c1cccc(C(C)(C)O)n1` [AZD1775] (top concentration 10000 nM), the “selective drug sensitivity score” value is 13.7.
As for `NC(=O)Nc1cc(-c2cccc(F)c2)sc1C(=O)N[C@H]1CCCNC1` [AZD7762] (top concentration 1000 nM), the “selective drug sensitivity score” value was found to be 3.3.
In the case of `Cc1cc([C@@H](C)Nc2ccccc2C(=O)O)c2nc(N3CCOCC3)cc(=O)n2c1` [AZD-6482] (top concentration 2500 nM), the “selective drug sensitivity score” value turned out to be 9.12.
Turning to `CN(C)Cc1c(C(=O)NCCOc2ccc(C(=O)NO)cc2)oc2ccccc12` [Abexinostat] (top concentration 10000 nM), the “selective drug sensitivity score” value was 5.56.
The same measure, in the same setting: as for `S=C(NCc1ccc2c(c1)OCO2)N1CCN(c2ncnc3c2oc2ccccc23)CC1` [Amuvatinib] (top concentration 10000 nM), the figure is 4.26.
In the case of `CC(=O)OC[C@H]1O[C@@H]([S-])[C@H](OC(C)=O)[C@@H](OC(C)=O)[C@@H]1OC(C)=O.CCP(CC)CC.[Au+]` [Auranofin] (top concentration 2500 nM), the “selective drug sensitivity score” value is 4.84.

The next test concerns PF-382. Described as above. The following applies: 72 h.
Take `Cc1c(-c2ccc(N3CCc4cccc(C(=O)Nc5nc6ccccc6s5)c4C3)nc2C(=O)O)cnn1CC12CC3CC(CC(C3)C1)C2` (top concentration 1000 nM): the “selective drug sensitivity score” value turned out to be 12.5.
Take `O=C(NOC[C@H](O)CO)c1ccc(F)c(F)c1Nc1ccc(I)cc1F` (top concentration 1000 nM): the “selective drug sensitivity score” value was -2.36.
The same measure, in the same setting: the value for `CO[C@@H](C)Cn1c(=O)n(C)c2cnc3ccc(-c4cncc(C(C)(C)O)c4)cc3c21` (top concentration 2500 nM) was 5.88.
As to `Cc1cccc(CC(=O)N2CCc3c2ccc(-c2cn(C)c4ncnc(N)c24)c3F)n1` (top concentration 2500 nM), the “selective drug sensitivity score” value is 3.72.
As for `CNC(=O)c1ccccc1Nc1nc(Nc2ccc3c(c2OC)CCC[C@H](N2CCN(CCO)CC2)C3)ncc1Cl` (top concentration 5000 nM), the “selective drug sensitivity score” value was -2.54.
On to `COc1cc2ncnc(Oc3cccc(NC(=O)Nc4cc(C(C)(C)C(F)(F)F)on4)c3)c2cc1OC` (top concentration 10000 nM), for which the “selective drug sensitivity score” value came out at 1.2.
On the same count and under the same terms, the value for `C[C@@H](Oc1cc(-n2cnc3ccc(CN4CCN(C)CC4)cc32)sc1C(N)=O)c1ccccc1C(F)(F)F` (top concentration 10000 nM) was 26.7; that for `Nc1nccc(-c2c(-c3ccc(F)cc3)ncn2C2CCCCC2)n1` (top concentration 10000 nM) was 0.8; that for `O=C(O)c1ccc(-c2c[nH]c3ncc(-c4ccccc4)cc23)cc1C1CCCC1` (top concentration 10000 nM) was -0.34.
